{
  "source": "patent US20240317683A1",
  "about": "“METHODS OF TREATING MOOD DISORDERS” (priority 2020, published 2024)",
  "tested_on": "C57BL/6 mice",
  "test": "Conditioned place preference in mice",
  "type": "in vivo",
  "conditions": "SC, abuse liability model, vs. vehicle; hydrochloride",
  "protocol": "Animals. Male C57BL/6 mice, 5-8 weeks of age, (body weight 25-30 g; Envigo, Indianapolis, IN, USA) were housed 5 per polycarbonate tub with soft bedding in a temperature-and humidity-controlled vivarium. Mice were maintained under a 12-h light/dark cycle with lights on at 06:00. Food and water were available ad libitum. Animals acclimated to the vivarium for 1 week prior to experimental manipulations.\nDrugs and Drug Administration. Compound 4 was prepared as described above. All other compounds were commercially obtained. Compound 4 and saline vehicle were administered subcutaneously (SC), with doses calculated based on the HCl salt, while the positive control oxycodone was administered intraperitoneally (IP), with the dose calculated based on the HCl salt. […]\nConditioned Place Preference. Reward and/or aversion was assessed in conditioned place preference chambers (Model MED-CPP-3013; Med Associates, St. Albans, VT). […]\nGroup size was n=10 per treatment. […] Final drug preference was assessed in a 15-minute post-conditioning trial and was calculated by subtracting the time in the drug-paired compartment at baseline from the time in the drug-paired compartment post-conditioning, with positive values reflecting reward and negative values reflecting aversion.\nFor all trials, time spent in chambers as well as movement was quantified by infrared photobeam detectors and calculated by Med-PC IV software. […]",
  "note": "Entries after “also recorded” stand apart in the source; their conditions may differ. Where a name gives a salt, the structure may show the parent alone.",
  "data": [
    {"smiles": "CCN(C)CCc1c[nH]c2ccc(F)cc12", "note": "[Compound 4, N-ethyl-2-(5-fluoro-1H-indol-3-yl)-N-methylethan-1-amine hydrochloride]", "values": [
      {"measurement": "preference for the drug-paired compartment", "value": "did not induce any significant preference; also recorded: not significantly different from vehicle"}
    ]}
  ]
}
